Assay results taken from US20240325319A1, “INHIBITORS OF AMYLOID BETA OLIGOMERIZATION AND THERAPEUTIC USES THEREOF” (Northwestern University, priority 2021, published 2024).
Entries after “also recorded” stand apart in the source; their conditions may differ.

Columns and labels:
acidic lysosomes = assay: Lysotracker labelling of acidic compartments in hippocampal neurons; assay type: cell-based, rat; settings: 3 μM NU-9, 30-minute treatment
Method: FIG. 24. Mature E18 hippocampal neurons were treated 3 μM NU-9, and subsequently labelled with lysotracker. A) total immunofluorescence (integrated density), B) mean intensity, C) average size of acidic compartments, D) number of acidic compartments.

preformed AβOs = assay: Binding of preformed AβOs to hippocampal neurons; assay type: cell-based, rat
Method: FIG. 11. […] Hippocampal neurons were treated with 3 μM NU-9 or vehicle for 30 min, then with Aβ monomer or preformed AβOs for 24 h. […] Neurons were stained with NU4 (anti-AβO antibody) and puncta per process were quantified.
FIG. 15. Mature hippocampal neurons were pre-treated with vehicle or 3 μM NU-9 for 30 min, then vehicle, 200 nM, or 500 nM AβO for 30 min. Then cells were fixed and labelled using anti-MAP2 (green, dendrites), DAPI (blue, nucleus), and NU2 (red, AβOs).
FIG. 19. Mature hippocampal neurons were treated first with 3 μM 9 for 30 min, and then with A) 30 or B) 200 nM LC AβOs for 30 min. Then, cells were fixed and labelled with anti-MAP2, DAPI, and NU2 (AβOs). The graphs show quantification of puncta/μm dendrite (30 images analyzed/condition, *** indicates p<0.001, ** p<0.01, * p<0.05).
If NU-9 did have some effect on preformed AβOs, this would support the alternate hypothesis that NU-9 removes AβO binding targets such as NKAα3 or PRP^c from the neuronal membrane^8-10.

cathepsin L = cathepsin L (Homo sapiens, UniProt P07711); assay: Purified cathepsin L enzyme activity (Z-FR-AMC to 7-AMC); assay type: biochemical; settings: 0.0003-150 μM NU-9
Sequence of cathepsin L (P07711 114-333, species assumed): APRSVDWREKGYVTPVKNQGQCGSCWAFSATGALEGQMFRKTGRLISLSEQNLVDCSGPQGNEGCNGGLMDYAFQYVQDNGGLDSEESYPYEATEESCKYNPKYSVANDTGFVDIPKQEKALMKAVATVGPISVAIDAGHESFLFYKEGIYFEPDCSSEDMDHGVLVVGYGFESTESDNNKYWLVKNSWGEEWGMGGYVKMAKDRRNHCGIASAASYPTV
Method: (§1) FIG. 26. A) 0.0003-150 μM NU-9 was combined with purified cathepsin L enzyme in the presence of the cathepsin L substrate Z-FR-AMC. Cathepsin L enzyme activity was measured by the rate of 7-AMC production by fluorescence. Percent change in rate was quantified in the graph. […] B) Mature hippocampal neurons were treated with NU-9 for 30 minutes, then Magic Red was used to monitor intracellular cathepsin L activity. Cells were treated in 3 wells, and 9-22 images were analyzed per condition.
(§2) No effect of 0.0003-150 μM NU-9 was observed on the cathepsin L activity as measured by the production rate of 7-AMC from Z-FR-AMC by purified cathepsin L enzyme.

5×FAD mice = assay: Memory performance (novel object preference) in 5×FAD mice; assay type: in vivo
Method: FIG. 7. […] Preliminary results obtained in 11 month old mice treated with NU-9 for 4 weeks. Memory performance was evaluated before and after treatment with vehicle or NU-9.
In a preliminary experiment using a mouse model of Alzheimer's disease, NU-9 protected against memory loss. Twelve 5×FAD mice were bred on the slow-onset background. These animals received either vehicle control or NU-9 by gavage (20 mg/kg) daily for one month. In the control group, all animals failed the memory task, showing no preference for the novel object. […] (FIG. 7).

[1] = target: T1, intracellular cathepsin L activity (Rattus norvegicus, UniProt P07154); assay: Intracellular cathepsin L activity in hippocampal neurons (Magic Red); assay type: cell-based; settings: hippocampal neurons treated with NU-9 30 minutes
T1 construct: endogenous in cells
T1 sequence (P07154 114-334): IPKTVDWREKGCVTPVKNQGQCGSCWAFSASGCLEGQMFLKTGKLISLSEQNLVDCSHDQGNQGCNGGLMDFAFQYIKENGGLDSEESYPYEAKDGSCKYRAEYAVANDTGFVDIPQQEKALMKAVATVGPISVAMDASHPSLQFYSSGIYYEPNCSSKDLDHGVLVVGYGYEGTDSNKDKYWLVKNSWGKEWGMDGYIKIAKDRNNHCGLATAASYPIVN
Method: as §1, §2

cathepsin B [2] = target: cathepsin B (Homo sapiens, UniProt P07858); assay: Purified cathepsin B enzyme activity (Z-RR-AMC to 7-AMC); assay type: biochemical; settings: NU-9 0.0003-30 μM
Method: FIG. 28. A) 0.0003-30 μM NU-9 was combined with purified cathepsin B enzyme in the presence of the cathepsin B substrate Z-RR-AMC. Cathepsin B enzyme activity was measured by the rate of 7-AMC production by fluorescence. Percent change in rate with NU-9 was quantified in the graph. […] B) Mature hippocampal neurons were treated with NU-9 for 30 minutes, then Magic Red was used to monitor intracellular cathepsin L activity. Cells were treated in 3 wells.

cathepsin B [3] = target: T2, cathepsin B (Rattus norvegicus, UniProt P00787); assay: Cathepsin B activity in hippocampal neurons (cell-based, Magic Red); settings: neurons treated with NU-9 30 minutes
T2 construct: endogenous in cells
T2 sequence (P00787 80-126 limits assumed): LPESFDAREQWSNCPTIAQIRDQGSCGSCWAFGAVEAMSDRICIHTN
T2 sequence (P00787 129-333 limits assumed): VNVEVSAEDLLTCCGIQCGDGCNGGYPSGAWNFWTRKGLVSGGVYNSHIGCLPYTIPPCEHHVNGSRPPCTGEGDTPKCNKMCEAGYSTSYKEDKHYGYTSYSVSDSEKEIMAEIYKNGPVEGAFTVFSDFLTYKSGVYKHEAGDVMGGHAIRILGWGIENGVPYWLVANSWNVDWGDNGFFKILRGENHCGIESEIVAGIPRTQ

AβOs = assay: Size of AβOs formed, molecular weight cutoff filters of 50 and 100 kDa; settings: 50 and 100 kDa cutoff filters; conflicting results from different blots
Text: Another area of investigation this quarter was the effect of NU-9 on the formation of different sizes of AβOs. Evidence from animal models and human samples indicate that that some species of AβOs are more toxic than others, and specifically that higher molecular weight oligomers (>50 kDa) may include the most Aβ-relevant species^15-16. To investigate whether NU-9 reduced the formation of high-molecular weight AβOs, I carried out several experiments using molecular weight cutoff filters of 50 and 100 kDa. However, conflicting results were obtained from different blots. […] The use of sufficient bioreplicates and thorough mixing is important for these experiments. These experiments may be revisited in the future, or the question of the type of AβOs targeted could be addressed through proteomics.

## C[C@H](Oc1cc(C(F)(F)F)cc(C(F)(F)F)c1)C1CC(=O)CC(=O)C1 [NU-9, (S)-5-(1-(3,5-bis(trifluoromethyl)phenoxy)ethyl)cyclohexane-1,3-dione]
Acidic lysosomes
  lysosome number, size, and acidity: unchanged
Preformed AβOs; 3 μM 30 min, then 30 or 200 nM LC AβOs 30 min
  binding of AβOs to hippocampal neurons (puncta/μm dendrite): no effect on the binding of the AβOs to hippocampal neurons
Preformed AβOs; 3 μM NU-9 30 min, then 200 or 500 nM AβO 30 min
  binding of preformed AβOs to dendrites (puncta/μm): has no effect on the binding of preformed AβOs; also recorded: no effect on binding to dendrites
Preformed AβOs; 3 μM NU-9 30 min, then preformed AβOs 24 h
  binding of preformed AβOs to neurons (NU4 puncta per process): does not reduce binding in neurons treated with premade AβOs; also recorded: does not reduce binding of preformed AβOs to neurons
Cathepsin L
  cathepsin L activity (production rate of 7-AMC from Z-FR-AMC): No effect
5×FAD mice; 5×FAD mice treated with vehicle or NU-9 for 4 weeks
  motor and exploratory behavior: normal motor and exploratory behavior
5×FAD mice; 5×FAD mice, 11 month old, 20 mg/kg by gavage daily for one month, preliminary, 20 mg/kg
  protection against memory loss (preference for novel object): mitigated memory loss; also recorded: three of the four mice were protected from memory loss; also recorded: mitigates memory loss in older 5×FAD mice
[1]
  intracellular cathepsin L activity: not observed to modulate intracellular cathepsin L activity
Cathepsin B [2]
  cathepsin B activity (cleavage of Z-RR-AMC to 7-AMC): Minimal effect
Cathepsin B [3]
  cathepsin B activity in hippocampal neurons: not observed to alter cathepsin B activity
AβOs
  change in AβO size species: reduction in 50-100 kDa species was observed, alongside an increase in small species (<50 kDa); also recorded: reduction in most species was observed, except in small species (<50 kDa)
